US11542288B2, “Antiviral compounds” (priority 2020, dated 2023)

Experiments:
[1] = test system: SP cells (chronically infected with HTLV-1); assay: SP cell Gag processing (HTLV-1 maturation) immunoblot; format: cell-based; settings: for amount of full-length (FL) Gag and larger size cleavage intermediates (CI): SP cell lysates and supernatants, 50 μM or 100 μM; for FL Gag band percentage (mean±SEM): 48 h
Protocol: SP Cell Culture and Protease Inhibition Treatments. SP cells were cultured in RPMI (Invitrogen, Carlsbad, Calif., USA) containing 20% HyClone (FC3) from Thermo Scientific (Waltham, Mass.) and 1% penicillin-streptomycin from Life Technologies (Grand Island, N.Y., USA) and supplemented with human IL-2 (Roche Diagnostics, Indianapolis, Ind., USA) at a concentration of 10 U/mL. Cells were grown to a density of […], and the media was exchanged into media containing the drug treatment at the two concentrations tested (50 μM and 100 μM). DMSO was used as a treatment control at the max concentration (0.01% v/v) as used for the sample with the highest inhibitor concentrations. Cells were treated for 48 h in an incubator at 37° C. with 5% CO2. To harvest the samples, the cell culture supernatant and cells were separated with a 5 min spin at 1000 g. The cell culture supernatant was filtered through a 0.22 μm syringe filter and ultracentrifuged over an 8% Optiprep cushion (Millipore Sigma, USA) (109,000 g for 1.5 hat 4° C.) in a 50.1 Ti rotor (Beckman Coulter, USA). The resulting viral pellet was resuspended in 200 μL of RIPA buffer (150 mM NaCl, 1% (v/v) Nonidet P-40, 0.5% sodium deoxycholate, 0.1% SDS, 25 mM Tris pH 7.4) supplemented with a cOmplete, Mini, EDTA-free cellular Protease Inhibitor Cocktail (Roche Diagnostics, Indianapolis, Ind., USA). The SP cell pellet was washed once with phosphate buffered saline (PBS) and resuspended in a final volume of 200 μL of a RIPA buffer cOmplete, Mini, EDTA-free cellular Protease Inhibitor Cocktail (Roche Diagnostics, Indianapolis, Ind., USA). Immunoblot samples were then prepared and detected as described in the previous method section. Gel band quantification analysis was performed using Fiji. A one-tailed t test for two independent means (95% confidence) was used to determine if the FL Gag band from the various drug treatments in the immunoblot analysis was statistically different from the DMSO controls.
To further validate inhibition of HTLV-1 protease, SP cells (which are chronically infected with HTLV-1) were treated with the same inhibitors (FIG. 20). The SP cell line harbors low numbers of HTLV-1 proviruses and produces virus particles that incorporate full-length Gag, which makes SP an ideal cell culture system for testing the inhibition of HTLV-1 maturation. Gag cleavage products were detected by using a CA (p24) primary antibody in both SP cell lysates and virus particles released in the cell culture supernatants. […] For the Ex.7 treatment of the viral particles produced from the SP cells, the FL Gag band percentage was 5.8±2.8% and 12.9±3.1% (mean±SEM) for 50 μM and 100 μM treatments, respectively (FIGS. 21, 23).

wild-type HIV-1 = assay: HIV antiviral assay (293T / TZM-BL luciferase); format: cell-based; settings: read-out: Antiviral WT EC50
HTLV-1 protease [2] = biological target: T1, HTLV-1 protease (Human T-cell leukemia virus type I, UniProt Q82134, L40I); format: biochemical; set-up: This protease construct has 9 amino acids removed from the C-terminus to facilitate crystallization; made in house; host or cells: Escherichia coli; settings: 1:1 ratio inhibitor to protease (1 μM), 60 min, 37° C.
HIV-1 protease 8 Mutant = biological target: T2, HIV-1 protease 8 Mutant (Human immunodeficiency virus type 1 group M subtype B, UniProt P12497); assay: HIV enzyme inhibition assay (Ki), 8 Mutant variant; format: biochemical; settings: drug-resistant protease variant 8 Mutant
T2 construct: onto NL4-3 wild-type protease on a pET11a plasmid with codon optimization for protein expression in Escherichia coli; A Q7K mutation was included to prevent autoproteolysis

HIV-1 protease KY24 = HIV-1 protease KY24 (Human immunodeficiency virus type 1, UniProt P12497); settings: read-out: Ki KY24; drug-resistant protease variant KY24
HIV-1 protease I84V = biological target: T3, HIV-1 protease I84V (Human immunodeficiency virus type 1 group M subtype B, UniProt P12497, I572V/Q495K); assay: HIV enzyme inhibition assay (Ki), I84V variant; format: biochemical; settings: drug-resistant protease variant I84V
T3 construct: onto NL4-3 wild-type protease on a pET11a plasmid; made in house

HIV-1 protease 11 Mutant = biological target: T4, HIV-1 protease 11 Mutant (Human immunodeficiency virus type 1 group M subtype B, UniProt P12497); assay: HIV enzyme inhibition assay (Ki), 11 Mutant variant; format: biochemical; settings: drug-resistant protease variant 11 Mutant
T4 construct: onto NL4-3 wild-type protease on a pET11a plasmid with codon optimization for protein expression in Escherichia coli; A Q7K mutation was included to prevent autoproteolysis

HIV-1 protease 10 Mutant = biological target: T5, HIV-1 protease 10 Mutant (Human immunodeficiency virus type 1 group M subtype B, UniProt P12497); assay: HIV enzyme inhibition assay (Ki), 10 Mutant variant; format: biochemical; settings: drug-resistant protease variant 10 Mutant
T5 construct: onto NL4-3 wild-type protease on a pET11a plasmid with codon optimization for protein expression in Escherichia coli; A Q7K mutation was included to prevent autoproteolysis

HTLV-1 protease [3] = biological target: T1, HTLV-1 protease; settings: HTLV-1 protease
HIV-1 protease I50V/A71V = biological target: T6, HIV-1 protease I50V/A71V (Human immunodeficiency virus type 1 group M subtype B, UniProt P12497, A559V/I538V/Q495K); assay: HIV enzyme inhibition assay (Ki), I50V/A71V variant; format: biochemical; settings: drug-resistant protease variant I50V/A71V
T6 construct: onto NL4-3 wild-type protease on a pET11a plasmid; made in house

HTLV-1 protease [4] = biological target: T1, HTLV-1 protease; assay: biochemical

Row | Structure (SMILES) | amount of full-length (FL) Gag and larger size cleavage intermediates (CI) [1] | EC50 (wild-type HIV-1) [nM] | inhibition of Gag cleavage and VLP maturation (HTLV-1 protease [2]) | FL Gag band percentage (mean±SEM) ([1]; SP cell lysate, 50 μM) [%] | FL Gag band percentage (mean±SEM) ([1]; SP cell lysate, 100 μM) [%] | FL Gag band percentage (mean±SEM) ([1]; viral particles produced from SP cells, 50 μM) [%] | FL Gag band percentage (mean±SEM) ([1]; viral particles produced from SP cells, 100 μM) [%] | Ki (HIV-1 protease 8 Mutant) [nM] | Ki (HIV-1 protease KY24) [nM] | Ki (HIV-1 protease I84V) [nM] | Ki (HIV-1 protease 11 Mutant) [nM] | Ki (HIV-1 protease 10 Mutant) [nM] | fold improvement of Ki compared to DRV (HTLV-1 protease [3]; relative to DRV) [fold] | fold better inhibition than UM6 (HTLV-1 protease [3]; relative to UM6) [fold] | Ki (HIV-1 protease I50V/A71V) [nM] | Ki (HTLV-1 protease [4]) [nM]
1 | CC(C)CN(C[C@@H](O)[C@H](Cc1ccccc1)NC(=O)O[C@H]1CO[C@H]2OCC[C@H]21)S(=O)(=O)c1ccc(N)cc1 [DRV, darunavir, reference compound] | increased | 4.75 | effectively inhibited Gag cleavage and VLP maturation |  |  |  |  |  |  |  |  |  |  |  |  | 
2 | CCOP(=O)(COc1ccc(C[C@H](NC(=O)O[C@H]2CO[C@H]3OCC[C@H]32)[C@H](O)CN(CC(CC)CC)S(=O)(=O)c2ccc(N)cc2)cc1)OCC [Example 7, (3R,3aS,6aR)-hexahydrofuro[2,3-b]furan-3-yl ((2S,3R)-4-((4-amino-N-(2-ethylbutyl)phenyl)sulfonamido)-1-(4-((diethoxyphosphoryl)methoxy)phenyl)-3-hydroxybutan-2-yl)carbamate] | increased | 16 | effectively inhibited Gag cleavage and VLP maturation | 32.4±15.5 | 41.0±13.7 | 5.8±2.8 | 12.9±3.1 | 4.71 ± 0.73 | 1.08 ± 0.06 | < 0.005 | 106 ± 7 | 51.6 ± 5.5 | 26 | 4 | < 0.005 | 30 ± 10
